“And” between values parts separate entries of the source, which are not always exact repeats. Equal entries are not always repeated. Where two headings read alike, the source gives them in different places.
Experiments:
phosphodiesterase = experiment: Inhibition of the phosphodiesterase activity (method of K. G. Nair); type: biochemical; conditions: read-out: ID50 (inhibiting dose 50%); up to 10 mM
Experimental: The inhibition of phosphodiesterase activity of YS 035 and of papaverine has been assessed according to the method of K. G. Nair (Biochemistry, 5, 150, 1966).
It has been used a medium containing:
2.5 ml of buffer tris-HCl 0.1M pH 7.4;
50 μl CAMP "Sigma" (1 mg/ml);
5 μl Adenosin deaminase (2 mg/ml);
20 μl of alkaline phosphatase "Sigma" (2.6 mg/ml);
15 μl of phosphodiesterase (10 mg/ml).
YS 035 has been added up to a final concentration of 100 mM and Papaverine to a concentration of 10 mM.

calcium ion flows = conditions: cited from earlier work
[1] = tested on: isolated guinea-pig atria; conditions: papaverine with verapamil; cited from earlier work
phosphodiesterases = conditions: cited from earlier work
[2] = tested on: synaptosomes of the brain of rats; experiment: Inhibition of the Ca2+-uptake in synaptosomes of the brain of rats; type: biochemical, rat; conditions: 250 μM
Experimental: The synaptosomes have been prepared from an homogenate of the brain of rats by centrifugation in the gradient of Filcoll at 23,500 rpm for a period of 30 minutes and diluted to 1.5 mg/cc in the medium constituted by:
After 15 minutes of preincubation, ^45 CaCl2, final concentration 1 mM (0.2μCi/cc is added to the medium).
The first determination has been carried out two minutes after the addition. […] After each period, the reaction has been stopped by centrifugation and the radioactivity has been determined in the supernatant as well as in the pellet. The latter had been denatured previously with PCA, neutralized and subsequently centrifuged.

[3] = tested on: mitochondria of liver of rats; experiment: Inhibition of Ca2+-uptake in mitochondria of liver of rats; type: biochemical, rat; conditions: 250 μM; 20° C.; control 14.3
Experimental: The mitochondria prepared according to classical methods are diluted to a concentration of 1.5 mg/cc in a medium of incubation which has the following composition:
After a period of 15 minutes of preincubation at 20° C. there was added ^45 CaCl2 (50 n mol/mg prot.).
In a manner analogous to the preceding experiments, the concentrations determined after two minutes were called the concentration at 0 period of time. The other controls were determined after 5 minutes, after 10 minutes and after 15 minutes. For the determination of Ca^2+, the experiment was carried out in a manner analogous to the preceding experiments.
The results are reported in Table 3 as the quantity of Ca transferred per mg of protein

[4] = tested on: kidney cells in newborn hamsters; experiment: Inhibition of Ca2+-uptake in kidney cells in newborn hamsters; type: cell-based, hamster
Experimental: Cells of kidneys of newborn hamsters have been washed and then resuspended several times in concentration of 5·10^6 /cc in the medium of the following composition:
After 15 minutes of preincubation at 30° C., the reaction was made to begin by addition to the medium of ^45 CaCl2 1 mM (0.1μCi/cc). The concentrations at 0 period of time were the concentrations determined two minutes after the addition. The other controls were carried out after 5 minutes, 10 minutes, and 20 minutes. The determination of [Ca^2+ ] was carried out as in the preceding experiment.

aorta of rabbits = experiment: Antagonistic activity on the contractions produced by arachidonic acid on the aorta of rabbits, study in vitro; set-up: species or system rabbit; conditions: for inhibition at 1 mg/kg: dose 1.0 mg·Kg^-1
Experimental: The study has been carried out by comparison with Nicardipine using autologous blood as the perfusion liquid. The addition of 0.1 mg of arachidonate to the liquid induces an isometric contraction of the aorta which is registered by a transducer. […] This phenomenon is shown by the relaxation which follows the addition of arachidonate to the perfusion blood. This effect may be noted with 0.1 mg/kg of YS 035 and 1 mg/kg of Nicardipine.

rats = experiment: Antagonistic effect to biochemical disturbances during the post-oligemic period in rats; type: in vivo, rat
Experimental: Oligemia in rats is caused by simultaneous bilateral occlusion of the carotid arteries associated with a slight decrease (8-9 kPa) of blood pressure and is maintained for 60 minutes. After removal of the occlusion, the post-oligemic period is followed for several days. In this case, the observation is continued up to the third day, at the time during which the brain accumulation of Ca^++ ions reaches the maximum.
The substances YS 035 or Nicardipine respectively, are administered to rats, 1, 5, 18, 24, 42 and 71 hours after having removed the carotid occlusion. The rats are sacrificed after 72 hours and the tissues are rapidly removed in order to determine their content of water, calcium and potassium.

portions of the aorta = experiment: Contraction of aorta portions by arachidonic acid after oral administration to rabbits (studies in vivo); set-up: species or system rabbit
Experimental: Both substances YS 035 and Nicardipine have been administered orally for a period of three consecutive days to rabbits in such a manner that the last administration of each substance was carried out one hour prior to killing the animals. The portions of the aorta had then been incubated either in PRP as well as in the Krebs-Henseleit liquid.

For COc1ccc(Cc2nccc3cc(OC)c(OC)cc23)cc1OC [Papaverine], the IC50 (phosphodiesterase) is listed as 40 µM, the “effect on calcium ion flows (in words)” value (calcium ion flows; at the lower concentrations) is listed as “stimulation of calcium ion flows” and the “concentration of antagonism on the calcium ion” value (calcium ion flows) is listed as “about 10^-4 M”. For the same compound, the “calcium antagonistic activity (in words)” value (calcium ion flows; conclusion from literature) was “totally devoid of calcium antagonistic activity”, the “interaction on the slow entry flows sustained by calcium ions (in words)” value [1] was “mutually antagonistic” and the “main biochemical action (in words)” value (phosphodiesterases) was “inhibition of phosphodiesterases”. The “inhibitory activity on the calcium uptake (in words)” value [2] was “completely devoid of calcium antagonistic activity” and the “Ca2+-uptake” value ([2]; 45CaCl2 1 mM, control 80 ± 7) was 79 ± 5 n g ions/mg prot/15 min.
In the case of COc1ccc(CCN(C)CCCC(C#N)(c2ccc(OC)c(OC)c2)C(C)C)cc1OC (centres unmarked) [verapamil], the “interaction on the slow entry flows sustained by calcium ions (in words)” value [1] is given as “mutually antagonistic”.
In the case of COC(=O)C1=C(C)NC(C)=C(C(=O)OC)C1c1ccccc1[N+](=O)[O-] [Nifedipine, reference compound], the “Ca2+-uptake” value [3] is reported as 9.5 n g ions/mg prot, the “Ca2+-uptake” value ([4]; 250 μM, 30° C., control 11.9) is reported as 7.9 n g ions/mg prot/15' and the percent change in Ca2+-uptake versus control at 250 µM ([4]; Mesocricetus auratus, 0.25 h, 15 min) is reported as -33.6%.
In the case of COC(=O)C1=C(C)NC(C)=C(C(=O)OCCN(C)Cc2ccccc2)C1c1cccc([N+](=O)[O-])c1 (centres unmarked) [Nicardipine, reference compound], the “Contraction of the first portion of the aorta” value (aorta of rabbits; N = 4) is reported as 38 ± 4.9 mm, the inhibition at 0.01 mg/kg (aorta of rabbits; Oryctolagus cuniculus, dose 0.01 mg·Kg^-1, read-out: Contraction of the second and third portion of the aorta, % Variation) is reported as 6% and the inhibition at 0.1 mg/kg (aorta of rabbits; Oryctolagus cuniculus, dose 0.1 mg·Kg^-1, read-out: Contraction of the second and third portion of the aorta, % Variation) is reported as 48 ± 15.5%. It also gave an inhibition at 1 mg/kg (aorta of rabbits; Oryctolagus cuniculus, read-out: Contraction of the second and third portion of the aorta, % Variation) of 162%, an inhibition at 1 mg/kg (aorta of rabbits; Oryctolagus cuniculus, second and third portion, read-out: % Variation, small contractions observed occasionally prior to relaxation (value in brackets)) of 84% and a minimal effective dose (aorta of rabbits; Oryctolagus cuniculus, autologous blood perfusion, 0.1 mg arachidonate, read-out: dose at which relaxation following the addition of arachidonate is noted) of 1 mg/kg. The “inhibitory effect on the contraction produced by the arachidonate (in words)” value (aorta of rabbits; YS 035 compared with Nicardipine) was “comparable”, the “Cerebral concentration, Ca++” value (rats; 3 mg·Kg^-1 P.O. 7×, 72 h, post-oligemic controls 28.2 ± 3.22) was 19.3 ± 4.92 mmol·Kg^-1 of dry substance and the “Cerebral concentration, H2O” value (rats; 3 mg·Kg^-1 P.O. 7×, 72 h, post-oligemic controls 80.1 ± 0.37) was 79.2 ± 0.42%. For the same compound, the “Cerebral concentration, K+” value (rats; 3 mg·Kg^-1 P.O. 7×, 72 h, post-oligemic controls 366.2 ± 12.58) was 368.5 ± 19.69 mmol·Kg^-1 of dry substance, the “intracellular accumulation of Ca++ ions (in words)” value (rats; rat, in vivo) was “much less significant” and the “Amplitude of contraction, medium Krebs, individual values” (portions of the aorta; 1 mg·Kg^-1 P.O., Krebs, controls 12 ± 2.3) was -30 mm and -10 mm. For the same compound, the “Amplitude of contraction, PRP, individual values” (portions of the aorta; 1 mg·Kg^-1 P.O., PRP, controls 30 ± 8.0) was “+24 mm and +55 mm” and the “site of action (in words)” value (portions of the aorta; aortic endothelial level, particularly PGI2) was “act directly on the synthesis of prostaglandin”.

Reference: patent publication US4956389A, “Compounds having calcium blocking activity” (priority 1982, dated 1990)
